# Test system: 782815-120-R-J1-PDC complex spheroid viability
# Assay: Anticancer human tumor 782815-120-R-J1-PDC patient-derived colon adenocarcinoma cell line growth inhibition [RAS]
# Conditions: for IC50: curve of first compound; for viability, T/C: stronger effect = lower value
# Summary of the method: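 Multi-cell-type spheroids: tumor cells plus HUVEC endothelial cells and mesenchymal stem cells. RAS-pathway inhibitors were combined with targeted agents, each dosed in half-log steps down from clinical Cmax, or from 10 microM when Cmax was unknown.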
# [1] = second compound 0.00316 µM, first compound 0.0316 µM
# [2] = second compound 0.00316 µM, first compound 0.1 µM
# [3] = second compound 0.00316 µM, first compound 0.316 µM
# [4] = second compound 0.00316 µM, first compound 1 µM
# [5] = second compound 0.00316 µM, first compound 3.16 µM
# [6] = second compound 0.00316 µM, first compound 10 µM
# [7] = second compound 0.01 µM, first compound 0.0316 µM
# [8] = second compound 0.01 µM, first compound 0.1 µM
# [9] = second compound 0.01 µM, first compound 0.316 µM
# [10] = second compound 0.01 µM, first compound 1 µM
# [11] = second compound 0.01 µM, first compound 3.16 µM
# [12] = second compound 0.01 µM, first compound 10 µM
# [13] = second compound 0.0316 µM, first compound 0.0316 µM
# [14] = second compound 0.0316 µM, first compound 0.1 µM
# [15] = second compound 0.0316 µM, first compound 0.316 µM
# [16] = second compound 0.0316 µM, first compound 1 µM
# [17] = second compound 0.0316 µM, first compound 3.16 µM
# [18] = second compound 0.0316 µM, first compound 10 µM
# [19] = second compound 0.1 µM, first compound 0.0316 µM
# [20] = second compound 0.1 µM, first compound 0.1 µM
# [21] = second compound 0.1 µM, first compound 0.316 µM
# [22] = second compound 0.1 µM, first compound 1 µM
# [23] = second compound 0.1 µM, first compound 3.16 µM
# [24] = second compound 0.1 µM, first compound 10 µM
# [25] = second compound 0.316 µM, first compound 0.0316 µM
# [26] = second compound 0.316 µM, first compound 0.1 µM
# [27] = second compound 0.316 µM, first compound 0.316 µM
# [28] = second compound 0.316 µM, first compound 1 µM
# [29] = second compound 0.316 µM, first compound 3.16 µM
# [30] = second compound 0.316 µM, first compound 10 µM
# [31] = second compound 1 µM, first compound 0.0316 µM
# [32] = second compound 1 µM, first compound 0.1 µM
# [33] = second compound 1 µM, first compound 0.316 µM
# [34] = second compound 1 µM, first compound 1 µM
# [35] = second compound 1 µM, first compound 3.16 µM
# [36] = second compound 1 µM, first compound 10 µM
# 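Further: spheroids exposed to compounds for 7 days before reading.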
# 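Wherever viability, T/C is given: 100% = DMSO vehicle control viability.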
compound,measurement,setting,value
CCC(CC)c1cc(NC2CCC(N)C2)n2nccc2n1 (stereo unspecified) + C=CC(=O)N1CCN(c2nc(OCC3CCCN3C)nc3c(F)c(-c4nc(N)cc(C)c4C(F)(F)F)c(Cl)cc23)C(C)C1,IC50,second compound 0.00316 µM,2.28 µM
same,IC50,second compound 0.01 µM,2.32 µM
same,IC50,second compound 0.0316 µM,2.45 µM
same,IC50,second compound 0.1 µM,2.16 µM
same,IC50,second compound 0.316 µM,2.54 µM
same,IC50,second compound 1 µM,2.28 µM
same,"viability, T/C",[1],108%
same,"viability, T/C",[2],111%
same,"viability, T/C",[3],106%
same,"viability, T/C",[4],98.3%
same,"viability, T/C",[5],31%
same,"viability, T/C",[6],1.4%
same,"viability, T/C",[7],105%
same,"viability, T/C",[8],107%
same,"viability, T/C",[9],108%
same,"viability, T/C",[10],104%
same,"viability, T/C",[11],30.4%
same,"viability, T/C",[12],1.14%
same,"viability, T/C",[13],101%
same,"viability, T/C",[14],103%
same,"viability, T/C",[15],95.8%
same,"viability, T/C",[16],115%
same,"viability, T/C",[17],34.6%
same,"viability, T/C",[18],1.3%
same,"viability, T/C",[19],102%
same,"viability, T/C",[20],98.2%
same,"viability, T/C",[21],104%
same,"viability, T/C",[22],98.4%
same,"viability, T/C",[23],26.2%
same,"viability, T/C",[24],1.7%
same,"viability, T/C",[25],103%
same,"viability, T/C",[26],101%
same,"viability, T/C",[27],95.5%
same,"viability, T/C",[28],106%
same,"viability, T/C",[29],37.9%
same,"viability, T/C",[30],1.49%
same,"viability, T/C",[31],98%
same,"viability, T/C",[32],104%
same,"viability, T/C",[33],103%
same,"viability, T/C",[34],100%
same,"viability, T/C",[35],29.9%
same,"viability, T/C",[36],2.19%
Cc1nc(N2CCC3(CC2)COC(C)C3N)c(CO)nc1Sc1ccnc(N)c1Cl (stereo unspecified) + C=CC(=O)N1CCN(c2nc(OCC3CCCN3C)nc3c(F)c(-c4nc(N)cc(C)c4C(F)(F)F)c(Cl)cc23)C(C)C1,IC50,second compound 0.00316 µM,> 10 µM
same,IC50,second compound 0.01 µM,> 10 µM
same,IC50,second compound 0.0316 µM,> 10 µM
same,IC50,second compound 0.1 µM,> 10 µM
same,IC50,second compound 0.316 µM,> 10 µM
same,IC50,second compound 1 µM,> 10 µM
same,"viability, T/C",[1],92.3%
same,"viability, T/C",[2],107%
same,"viability, T/C",[3],97.4%
same,"viability, T/C",[4],96%
same,"viability, T/C",[5],106%
same,"viability, T/C",[6],101%
same,"viability, T/C",[7],103%
same,"viability, T/C",[8],115%
same,"viability, T/C",[9],96.2%
same,"viability, T/C",[10],108%
same,"viability, T/C",[11],104%
same,"viability, T/C",[12],100%
same,"viability, T/C",[13],101%
same,"viability, T/C",[14],98.9%
same,"viability, T/C",[15],97.8%
same,"viability, T/C",[16],97.3%
same,"viability, T/C",[17],95.1%
same,"viability, T/C",[18],101%
same,"viability, T/C",[19],98.7%
same,"viability, T/C",[20],110%
same,"viability, T/C",[21],98.1%
same,"viability, T/C",[22],105%
same,"viability, T/C",[23],104%
same,"viability, T/C",[24],97.9%
same,"viability, T/C",[25],103%
same,"viability, T/C",[26],102%
same,"viability, T/C",[27],103%
same,"viability, T/C",[28],105%
same,"viability, T/C",[29],108%
same,"viability, T/C",[30],102%
same,"viability, T/C",[31],98.6%
same,"viability, T/C",[32],102%
same,"viability, T/C",[33],95.8%
same,"viability, T/C",[34],100%
same,"viability, T/C",[35],99.9%
same,"viability, T/C",[36],104%
NC1c2ccccc2OC12CCN(c1cnc3c(N4CCCc5ncccc54)n[nH]c3n1)CC2 (stereo unspecified) + C=CC(=O)N1CCN(c2nc(OCC3CCCN3C)nc3c(F)c(-c4nc(N)cc(C)c4C(F)(F)F)c(Cl)cc23)C(C)C1,IC50,second compound 0.00316 µM,> 10 µM
same,IC50,second compound 0.01 µM,> 10 µM
same,IC50,second compound 0.0316 µM,> 10 µM
same,IC50,second compound 0.1 µM,> 10 µM
same,IC50,second compound 0.316 µM,> 10 µM
same,IC50,second compound 1 µM,> 10 µM
same,"viability, T/C",[1],94.4%
same,"viability, T/C",[2],110%
same,"viability, T/C",[3],95.4%
same,"viability, T/C",[4],93.8%
same,"viability, T/C",[5],98.2%
same,"viability, T/C",[6],84.4%
same,"viability, T/C",[7],98.4%
same,"viability, T/C",[8],95.6%
same,"viability, T/C",[9],89%
same,"viability, T/C",[10],91.3%
same,"viability, T/C",[11],93.8%
same,"viability, T/C",[12],82.8%
same,"viability, T/C",[13],96.4%
same,"viability, T/C",[14],107%
same,"viability, T/C",[15],98.3%
same,"viability, T/C",[16],100%
same,"viability, T/C",[17],99.7%
same,"viability, T/C",[18],71.9%
same,"viability, T/C",[19],95.1%
same,"viability, T/C",[20],105%
same,"viability, T/C",[21],91.7%
same,"viability, T/C",[22],107%
same,"viability, T/C",[23],95.8%
same,"viability, T/C",[24],79.7%
same,"viability, T/C",[25],98%
same,"viability, T/C",[26],90.9%
same,"viability, T/C",[27],88.5%
same,"viability, T/C",[28],100%
same,"viability, T/C",[29],94.3%
same,"viability, T/C",[30],74.6%
same,"viability, T/C",[31],108%
same,"viability, T/C",[32],86.4%
same,"viability, T/C",[33],103%
same,"viability, T/C",[34],93.3%
same,"viability, T/C",[35],91.8%
same,"viability, T/C",[36],77.8%
